Reference: patent publication US6166070A, “Kodaistatins A, B, C and D, a process for their production and their use” (Aventis Pharma Deutschland GmbH, priority 1997, dated 2000)
Converted amounts (≈) assume the structure as drawn. Like-named read-outs stand apart in the source and are kept apart here.

What was measured:
[1] = biological target: T1, rat liver microsomal glucose-6-phosphate translocase (Rattus norvegicus, UniProt F7EWB7); test: inhibition of rat liver microsomal glucose-6-phosphate translocase (colorimetric assay, untreated and Triton X-100 disrupted microsomes); type: biochemical
T1 construct: rat liver microsomal glucose-6-phosphate translocase; from tissue; host or cells: rat liver microsomes (untreated and Triton X-100 disrupted)
T1 sequence (F7EWB7 1-429): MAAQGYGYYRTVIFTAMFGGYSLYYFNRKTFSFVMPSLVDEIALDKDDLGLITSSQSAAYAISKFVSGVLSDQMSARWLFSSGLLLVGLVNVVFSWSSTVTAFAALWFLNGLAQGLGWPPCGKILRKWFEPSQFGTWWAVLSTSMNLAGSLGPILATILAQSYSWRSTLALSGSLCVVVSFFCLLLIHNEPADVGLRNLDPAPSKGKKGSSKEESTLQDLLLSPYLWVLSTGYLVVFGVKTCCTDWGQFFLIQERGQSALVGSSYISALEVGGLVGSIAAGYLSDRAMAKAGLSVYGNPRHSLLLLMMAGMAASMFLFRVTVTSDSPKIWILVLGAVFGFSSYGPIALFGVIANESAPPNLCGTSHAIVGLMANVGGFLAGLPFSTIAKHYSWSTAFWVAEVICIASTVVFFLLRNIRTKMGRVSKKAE
Protocol: (§1) The fermentation is preferably carried out for 40 to 90 hours when an optimal yield of the compounds of the present invention are obtained. It is particularly preferred to carry out the fermentation for 45-70 hours under submerged conditions for example in shake flasks as well as in laboratory fermenters. If desired, antifoam agents like Desmophen® (Polypropylene oxide, Bayer A G, Leverkusen, Germany) may be used in the fermentation process. The progress of fermentation and formation of Kodaistatins A, B, C and D can be detected by measuring the […] in untreated and Triton X-100® disrupted rat liver microsomes in microliter plates at room temperature using a colorimetric assay as described in Methods in Enzymology, 174,58-67 (1989) with some modification and by HPLC In the resulting culture broth, kodaistatin B, C and D are present as minor compounds, and kodaistatins A as a major compound. Thus, the active crude material can be recovered by extraction of mycelium with water miscible solvents such as methanol, ethanol and acetone, and extraction of the culture filtrate with a water immiscible solvent such as ethyl acetate, dichioromethane, chloroform or butanol at pH 5-8 or by hydrophobic interaction chromatography using polymeric resins such as "Diaion HP-20®" (Mitsubishi Chemical Industries Limited, Japan), "Amberlite XAD®" (Rohm and Haas Industries U.S.A.) activated charcoal or ion exchange chromatography at pH 5-8. The preferred method is adsorption over "Diaion HP-20®" followed by desorption of the compound using eluants such as water, methanol, acetone or acetonitrile or combinations thereof. Concentration and lyophilization of the active eluates gives the crude compound.
Kodaistatins A, B, C and D inhibit potently the activity of rat liver microsomal glucose-6-phosphate translocase.

solubility = type: physicochemical; settings: solvents in which soluble
[2] = test system: phosphate/pyrophosphate translocase; test: effect on activity of phosphate/pyrophosphate translocase; type: biochemical, rat
[3] = test system: glucagon-induced glycogenolysis; test: glucose output of isolated rat hepatocytes, glucagon-induced glycogenolysis; type: cell-based; settings: Hepatocyte, read-out: IC50, inhibition of glucagon-induced glycogenolysis
Description: (§2) Kodaistatin A was further evaluated in isolated rat hepatocytes for its effect on glucose output.

[4] = test system: fructose-induced gluconeogenesis; test: glucose output of isolated rat hepatocytes, fructose-induced gluconeogenesis; type: cell-based; settings: Hepatocyte, read-out: IC50, inhibition of fructose-induced gluconeogenesis
Description: as §2

phosphatase = biological target: T2, phosphatase (Rattus norvegicus, UniProt P43428); test: inhibition of phosphatase activity in detergent-disrupted microsomes; type: biochemical; settings: for IC50: detergent-disrupted microsomes
T2 construct: from tissue; host or cells: rat liver microsomes, detergent (Triton X-100) disrupted
T2 sequence (P43428 1-357): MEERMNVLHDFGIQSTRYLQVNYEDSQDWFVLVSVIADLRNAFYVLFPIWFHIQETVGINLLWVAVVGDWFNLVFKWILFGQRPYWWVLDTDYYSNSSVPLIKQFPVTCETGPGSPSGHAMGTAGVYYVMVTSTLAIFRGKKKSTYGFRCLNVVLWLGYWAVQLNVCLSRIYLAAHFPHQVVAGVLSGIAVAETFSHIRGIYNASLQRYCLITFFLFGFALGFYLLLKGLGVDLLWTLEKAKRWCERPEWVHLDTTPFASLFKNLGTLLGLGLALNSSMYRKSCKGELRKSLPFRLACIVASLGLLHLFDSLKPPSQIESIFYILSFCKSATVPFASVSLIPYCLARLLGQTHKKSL
Protocol: as §1

[5] = rat liver microsomes, read-out: approximate IC50, glucose-6-phosphate translocase (converted)

| IC50 [1, 5] [nM] | Solubility (solubility) | effect on activity of phosphate/pyrophosphate translocase [2] | mode of inhibition of glucose-6-phosphate translocase [1] | IC50 ([1]; Example V, isolation and purification, read-out: IC50, glucose-6-phosphate translocase, material at stages of purification (converted)) [nM] | IC50 ([1]; rat liver microsomes, molar value in parentheses, read-out: approximate IC50, glucose-6-phosphate translocase (converted)) [nM] | IC50 (phosphatase) [nM] | IC50 (phosphatase; molar value in parentheses) [nM] | SMILES | IC50 [3] [µg/mL] | IC50 [4] [µg/mL] | specificity for translocase over phosphatase (phosphatase; translocase vs phosphatase) |
| --- | --- | --- | --- | --- | --- | --- | --- | --- | --- | --- | --- |
| ~476 | MeOH and DMSO | – | – | – | – | – | – | CCC(C)C=C(C)C=CC(=O)CC1=C(c2cc(O)c(O)cc2C2=C(O)C(=Cc3ccc(O)cc3)OC2=O)C(O)(C(C)=O)C(O)C1=O (single isomer, unassigned) [Kodaistatin B] | – | – | – |
| ~317 | MeOH, CH3 CN and DMSO | did not affect the activity | reversible and competitive inhibitor | 317 | ~300 | ~317000 | ~300000 | CCC(C)/C=C(C)/C=C/C(=O)CC1=C(c2cc(O)c(O)cc2C2=C(O)/C(=C/c3ccc(O)cc3)OC2=O)C(O)(C(C)=O)C(O)C1=O (centres unmarked) [Kodaistatin A] | ~50 (≈ 79.3 µM) | ~25 (≈ 39.6 µM) | high degree of specificity for translocase |
| ~139 | MeOH and DMSO | – | – | – | – | – | – | CCC(C)C=C(C)C=CC(=O)CC1=C(c2cc(O)c(O)cc2C2=C(O)C(=Cc3ccc(O)c(O)c3)OC2=O)C(O)(C(C)=O)C(O)C1=O (centres unmarked) [Kodaistatin C] | – | – | – |
| ~773 | MeOH and DMSO | – | – | – | – | – | – | CCC(C)C=C(C)C=CC(=O)CC1=C(c2cc(O)c(O)cc2C2=C(O)C(=Cc3ccc(O)c(O)c3)OC2=O)C(O)(C(C)=O)C(O)C1=O (centres unmarked) [Kodaistatin D] | – | – | – |
